Active and inactive are the calls of the source. No cut-off for these calls is given here. Square brackets hold non-standard residues; d marks the D form. Peptide text beside a SMILES is read from it. * marks the point of attachment. Orn = NCCC[C@H](N)C(=O)O; 2Furoyl = O=C(c1ccco1)*
Legend:
[1] = molecular target: Proteinase-activated receptor 2 (Homo sapiens) (UniProt P55085); assay: Agonist activity at human PAR2 expressed in HEK293T cells assessed as effect on intracellular calcium mobilization by R-SAT assay relative to SLIGRL-NH2; format: functional, cell-based; conditions: HEK-293T
[2] = molecular target: T1, Proteinase-activated receptor 2 (Homo sapiens, UniProt P55085); assay: Agonist activity at human PAR2 expressed in HEK293T cells assessed as effect on intracellular calcium mobilization by R-SAT assay; format: functional, cell-based, HEK-293T
T1 sequence (P55085 whole entry): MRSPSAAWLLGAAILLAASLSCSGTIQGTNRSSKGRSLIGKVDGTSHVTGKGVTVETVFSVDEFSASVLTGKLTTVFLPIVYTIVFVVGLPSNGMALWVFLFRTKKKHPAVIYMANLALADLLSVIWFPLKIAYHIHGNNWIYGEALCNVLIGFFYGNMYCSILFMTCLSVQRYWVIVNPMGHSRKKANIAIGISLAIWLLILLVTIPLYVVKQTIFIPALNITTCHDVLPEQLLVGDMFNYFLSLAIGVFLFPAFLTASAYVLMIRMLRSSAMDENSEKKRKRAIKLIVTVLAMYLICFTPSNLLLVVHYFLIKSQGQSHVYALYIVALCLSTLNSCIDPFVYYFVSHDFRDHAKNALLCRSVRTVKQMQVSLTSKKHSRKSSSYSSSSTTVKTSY

[3] = Solubility in presence of 25% Tween; format: physicochemical
[4] = Metabolic stability in rat liver microsomes assessed as intrinsic clearance; format: ADME, Microsome
[5] = Metabolic stability in human liver microsomes assessed as intrinsic clearance; format: ADME, Microsome
[6] = molecular target: Proteinase-activated receptor 2 (Homo sapiens) (UniProt P55085); assay: Agonist activity at human PAR2 expressed in HEK293T cells assessed as effect on phosphatidyl inositol hydrolysis; format: functional, cell-based; conditions: HEK-293T
[7] = tested on: Rattus norvegicus; assay: Induction of inflammation assessed as incidence of paw edema in intrapaw dosed rat; format: functional, organism-based
[8] = molecular target: T2, Proteinase-activated receptor 3 (Homo sapiens) (UniProt O00254); assay: Agonist activity at PAR3; format: functional
T2 sequence (whole entry): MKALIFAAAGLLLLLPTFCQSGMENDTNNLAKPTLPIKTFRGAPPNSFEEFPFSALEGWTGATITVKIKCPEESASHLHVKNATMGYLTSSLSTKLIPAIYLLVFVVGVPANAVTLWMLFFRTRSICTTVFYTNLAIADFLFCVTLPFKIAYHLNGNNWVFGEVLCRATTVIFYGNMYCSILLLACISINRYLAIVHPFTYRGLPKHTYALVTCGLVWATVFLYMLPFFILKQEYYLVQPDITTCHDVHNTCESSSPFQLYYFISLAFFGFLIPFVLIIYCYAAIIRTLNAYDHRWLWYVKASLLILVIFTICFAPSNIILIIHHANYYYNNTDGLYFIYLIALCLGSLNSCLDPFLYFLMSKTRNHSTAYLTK

[9] = molecular target: T3, Proteinase-activated receptor 4 (Homo sapiens) (UniProt Q96RI0); assay: Agonist activity at PAR4; format: functional
T3 sequence (whole entry): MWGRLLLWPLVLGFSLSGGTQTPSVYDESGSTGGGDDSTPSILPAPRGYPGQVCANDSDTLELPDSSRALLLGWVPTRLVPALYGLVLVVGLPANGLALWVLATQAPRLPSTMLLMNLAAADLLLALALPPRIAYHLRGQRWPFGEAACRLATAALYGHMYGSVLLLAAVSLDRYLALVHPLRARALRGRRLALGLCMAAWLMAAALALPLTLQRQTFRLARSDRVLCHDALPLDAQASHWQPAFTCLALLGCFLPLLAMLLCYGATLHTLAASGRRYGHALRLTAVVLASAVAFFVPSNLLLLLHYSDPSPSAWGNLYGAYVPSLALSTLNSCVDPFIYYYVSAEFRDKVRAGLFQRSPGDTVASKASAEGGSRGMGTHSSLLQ

[10] = molecular target: T4, Proteinase-activated receptor 1 (Homo sapiens) (UniProt P25116); assay: Agonist activity at PAR1; format: functional
T4 sequence (whole entry): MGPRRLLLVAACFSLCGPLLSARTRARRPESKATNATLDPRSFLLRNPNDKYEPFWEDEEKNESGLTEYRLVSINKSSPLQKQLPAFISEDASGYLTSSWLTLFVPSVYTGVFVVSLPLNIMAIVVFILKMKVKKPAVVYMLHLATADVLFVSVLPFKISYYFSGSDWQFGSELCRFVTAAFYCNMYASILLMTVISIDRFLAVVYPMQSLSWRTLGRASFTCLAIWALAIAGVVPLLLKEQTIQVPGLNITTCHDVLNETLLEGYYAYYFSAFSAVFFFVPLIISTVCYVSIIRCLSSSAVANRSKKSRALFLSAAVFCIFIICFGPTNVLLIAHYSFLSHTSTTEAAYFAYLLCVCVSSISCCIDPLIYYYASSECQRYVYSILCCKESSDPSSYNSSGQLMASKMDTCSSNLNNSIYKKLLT

[11] = tested on: Rattus norvegicus; assay: Induction nociception assessed as incidence of thermal hyperalgesia in intrapaw dosed rat; format: functional, organism-based

Compound	Efficacy [1] [%]	EC50 [2] [nM]	further results
CC[C@H](C)[C@H](NC(=O)[C@H](CC(C)C)NC(=O)c1ccco1)C(=O)NCC(=O)N[C@@H](CCCNC(=N)N)C(=O)N[C@@H](CC(C)C)C(=O)N[C@@H](CCCN)C(N)=O (2Furoyl-LIGRL[Orn]-NH2)	89		
C/C(=N\NC(=O)[C@@H]1C(=O)NC[C@H]1c1ccccc1)c1cccc(Br)c1 (stereo in doubt; (-)-3) [listing 1 of 2 here]		> 10000	
H-SLIGRL-NH2	100	10000	
C/C(=N\NC(=O)[C@@H]1C(=O)NC[C@H]1c1ccccc1)c1cccs1	30	6310	
C/C(=N\NC(=O)[C@@H]1C(=O)NC[C@H]1c1ccccc1)c1ccccc1Br	11	10000	
C/C(=N\NC(=O)[C@@H]1C(=O)NC[C@H]1c1ccccc1)c1cccc(Br)c1 (stereo in doubt; 3) [listing 2 of 2 here]	93		Activity [6]: Active; Activity [7]: Dose-dependent effect; Activity [8]: inactive; Activity [9]: inactive; Activity [10]: inactive; Activity [11]: Dose-dependent effect
C/C(=N\NC(=O)[C@@H]1C(=O)NC[C@H]1c1ccccc1)c1cccc(Br)c1 (stereo in doubt; (+)-3) [listing 1 of 2 here]	91		
C/C(=N\NC(=O)[C@@H]1C(=O)NC[C@H]1c1ccccc1)c1cccc(Br)c1 (stereo in doubt; (-)-3) [listing 2 of 2 here]	10		
C/C(=N\NC(=O)[C@@H]1C(=O)NC[C@H]1c1ccccc1)c1ccc(Br)cc1	32	7940	
C/C(=N\N(C)C(=O)[C@@H]1C(=O)NC[C@H]1c1ccccc1)c1cccc(Br)c1	35	6310	

Second part, led by results:

Efficacy [1] [%]	EC50 [2] [nM]	Compound	further results
62	126	O=C1NC[C@@H](c2ccccc2)[C@@H]1C(=O)N/N=C1\CCc2ccc(Br)cc21	
	31.6	C/C(=N\NC(=O)[C@@H]1C(=O)NC[C@H]1c1ccccc1)c1cccc(Br)c1 (stereo in doubt; 3) [listing 1 of 2 here]	solubility [3]: > 2000 µg/mL; microsomal CLint [4]: 37 µL/min/mg; microsomal CLint [5]: 9 µL/min/mg
82	25.1	C/C(=N\NC(=O)[C@@H]1C(=O)NC[C@H]1c1cccc(Br)c1)c1cccc(Br)c1	
72	50.1	CC(C)=CN1C[C@@H](c2ccccc2)[C@H](C(=O)N/N=C(\C)c2cccc(Br)c2)C1=O	
81	200	C/C(=N\NC(=O)C(NC(=O)c1ccccc1)c1n[nH]c(=O)c2ccccc12)c1cccc(Br)c1 (stereo not given)	Activity [6]: Active; Activity [7]: Dose-dependent effect; Activity [8]: inactive; microsomal CLint [4]: 6 µL/min/mg; Activity [9]: inactive; Activity [10]: inactive; Activity [11]: Dose-dependent effect; microsomal CLint [5]: 19 µL/min/mg
49	2510	C/C(=N\NC(=O)[C@@H]1C(=O)NC[C@H]1c1ccccc1)c1ccc(Br)s1	
	31.6	C/C(=N\NC(=O)[C@@H]1C(=O)NC[C@H]1c1ccccc1)c1cccc(Br)c1 (stereo in doubt; (+)-3) [listing 2 of 2 here]	
	25.1	CC[C@H](C)[C@H](NC(=O)[C@H](CC(C)C)NC(=O)c1ccco1)C(=O)NCC(=O)N[C@@H](CCCN=C(N)N)C(=O)N[C@@H](CC(C)C)C(=O)N[C@@H](CCCN)C(N)=O (2Furoyl-LIGRL[Orn]-NH2)	

— ChEMBL document CHEMBL1140059, “Discovery of potent and selective small-molecule PAR-2 agonists” (J Med Chem, 2008)
